This assay deals with T1, human XIAP_BIR3 domain purified protein (Homo sapiens, UniProt P98170).
T1 construct: purchased R & D
Description: XIAP binding inhibitory activity, HTRF method with b-Smac ligand. The following applies: for IC50: second symbol of the cell, read-out: XIAP binding 50% inhibitory concentration (IC50 value); for inhibition at 3 µM: test compound 3 μM, first symbol of the cell, read-out: XIAP binding inhibition rate when the concentration of the test compound is 3 μM. In a few lines: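 HTRF competition: human XIAP BIR3 and C-terminally biotinylated Smac peptide AVPIAQK, each diluted to 90 nM before addition, in HEPES pH 7.5 buffer with NaCl, BSA, Triton X-100. Eu-cryptate anti-His/streptavidin-XL665 detection after ≥4 h at room temperature; inhibition % from 665/615 ratio versus no-compound control.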

Results on 21 molecules are retold here after patent US12202829B2, “Heterocyclic compound” (FIMECS, Inc., priority 2018, dated 2025).

Structures are written as SMILES. Counter-ions that a name gives are not always drawn.

T1 sequence (P98170 252-356 limits assumed): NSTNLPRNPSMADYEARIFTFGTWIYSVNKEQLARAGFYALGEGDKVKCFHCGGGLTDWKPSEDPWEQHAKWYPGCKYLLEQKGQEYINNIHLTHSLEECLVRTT

As for `CN[C@@H](C)C(=O)N[C@H](C(=O)N1CCN(C(=O)c2cc3cc(F)ccc3n2CCOC)CC1)C1CCCCC1` [Example 52, (S)—N—((S)-1-Cyclohexyl-2-(4-(5-fluoro-1-(2-methoxyethyl)-1H-indole-2-carbonyl)piperazin-1-yl)-2-oxoethyl)-2-(methylamino)propanamide], the IC50 was in the range of 3 to 30 µM.
Regarding `CN[C@@H](C)C(=O)N[C@H](C(=O)N1CCN(C(=O)c2c(C(=O)NCCOCCOCC(=O)N3CCN(c4cc(Nc5ncc(C(=O)Nc6c(C)cccc6Cl)s5)nc(C)n4)CC3)c3cc(F)ccc3n2C)CC1)C1CCCCC1` [Example 85, N-(2-chloro-6-methylphenyl)-2-((6-(4-(2-(2-(2-(2-(4-((S)-2-cyclohexyl-2-((S)-2-(methylamino)propanamido)acetyl)piperazine-1-carbonyl)-5-fluoro-1-methyl-1H-indole-3-carboxamido)ethoxy)ethoxy)acetyl)piperazin-1-yl)-2-methylpyrimidin-4-yl)amino)thiazole-5-carboxamide], the inhibition at 3 µM was in the range of 50 to 75%.
On the same count and under the same terms, the figure for `CN[C@@H](C)C(=O)N[C@H](C(=O)N1CCN(C(=O)c2c(C(=O)NCCOCCOCCOCCNC(=O)C[C@@H]3N=C(c4ccc(Cl)cc4)c4c(sc(C)c4C)-n4c(C)nnc43)c3cc(F)c(F)cc3n2C)CC1)C1CCCCC1` [Example 74, N-(1-((S)-4-(4-chlorophenyl)-2,3,9-trimethyl-6H-thieno[3,2-f][1,2,4]triazolo[4,3-a][1,4]diazepin-6-yl)-2-oxo-6,9,12-trioxa-3-azatetradecan-14-yl)-2-(4-((S)-2-cyclohexyl-2-((S)-2-(methylamino)propanamido)acetyl)piperazine-1-carbonyl)-5,6-difluoro-1-methyl-1H-indole-3-carboxamide] is 25 to 50%.
On the same count and under the same terms, the figure for `CN[C@@H](C)C(=O)N[C@H](C(=O)N1CCN(C(=O)c2c(C(=O)NCCOCCOCCOCC(=O)N3CCN(c4cc(Nc5ncc(C(=O)Nc6c(C)cccc6Cl)s5)nc(C)n4)CC3)c3cc(F)ccc3n2C)CC1)C1CCCCC1` [Example 84, N-(2-chloro-6-methylphenyl)-2-((6-(4-(1-(2-(4-((S)-2-cyclohexyl-2-((S)-2-(methylamino)propanamido)acetyl)piperazine-1-carbonyl)-5-fluoro-1-methyl-1H-indol-3-yl)-1-oxo-5,8,11-trioxa-2-azatridecan-13-oyl)piperazin-1-yl)-2-methylpyrimidin-4-yl)amino)thiazole-5-carboxamide] is 50 to 75%; for `CN[C@@H](C)C(=O)N[C@H](C(=O)N1CCN(C(=O)c2cc3cc(F)ccc3n2CC(=O)NCCOCCNC(=O)C[C@@H]2N=C(c3ccc(Cl)cc3)c3c(sc(C)c3C)-n3c(C)nnc32)CC1)C1CCCCC1` [Example 75, (S)-N-((S)-2-(4-(1-(2-((2-(2-(2-((S)-4-(4-chlorophenyl)-2,3,9-trimethyl-6H-thieno[3,2-f][1,2,4]triazolo[4,3-a][1,4]diazepin-6-yl)acetamido)ethoxy)ethyl)amino)-2-oxoethyl)-5-fluoro-1H-indole-2-carbonyl)piperazin-1-yl)-1-cyclohexyl-2-oxoethyl)-2-(methylamino)propanamide] it is more than 25%.
On the same count and under the same terms, the figure for `CN[C@@H](C)C(=O)N[C@H](C(=O)N1CCN(C(=O)c2ccc3nc(C)nn3c2)CC1)C1CCCCC1` [Example 19, (S)-N-((S)-1-cyclohexyl-2-(4-(2-methyl-[1,2,4]triazolo[1,5-a]pyridine-6-carbonyl)piperazin-1-yl)-2-oxoethyl)-2-(methylamino)propanamide] is more than 25%.
For the molecule `CN[C@@H](C)C(=O)N[C@H](C(=O)N1CCN(C(=O)c2cc3c(OCCOCCOCCO)c(F)c(F)cc3n2C)CC1)C1CCCCC1` [Example 67, (S)—N—((S)-1-Cyclohexyl-2-(4-(5,6-difluoro-4-(2-(2-(2-hydroxyethoxy)ethoxy)ethoxy)-1-methyl-1H-indole-2-carbonyl)piperazin-1-yl)-2-oxoethyl)-2-(methylamino)propanamide], the IC50 lay within 0.3 to 3 µM.
For `CN[C@@H](C)C(=O)N[C@H](C(=O)N1CCN(C(=O)c2c(C(=O)NCCOCCOCC(=O)O)c3ccc(OC)cc3n2C)CC1)C1CCCCC1` [Example 37, 2-(2-(2-(2-(4-((S)-2-Cyclohexyl-2-((S)-2-(methylamino)propanamido)acetyl)piperazine-1-carbonyl)-6-methoxy-1-methyl-1H-indole-3-carboxamido)ethoxy)ethoxy)acetic Acid Hydrochloride], the inhibition at 3 µM is 50 to 75%.
On to `CN[C@@H](C)C(=O)N[C@H](C(=O)N1CCN(C(=O)c2cc3cc(F)c(F)cc3n2C)CC1)C1CCCCC1` [Example 41, (S)—N—((S)-1-Cyclohexyl-2-(4-(5,6-difluoro-1-methyl-1H-indole-2-carbonyl)piperazin-1-yl)-2-oxoethyl)-2-(methylamino)propanamide], for which the inhibition at 3 µM is more than 75%.
Consider `CN[C@@H](C)C(=O)N[C@H](C(=O)N1C[C@H]2CC[C@@H]1CN2C(=O)c1cc2cc(F)c(F)cc2n1C)C1CCCCC1` [Example 59, (2S)-N-((1S)-1-cyclohexyl-2-(5-((5,6-difluoro-1-methyl-1H-indol-2-yl)carbonyl)-2,5-diazabicyclo[2.2.2]octan-2-yl)-2-oxoethyl)-2-(methylamino)propanamide], for which the IC50 lay in the range of 3 to 30 µM.
On to `CN[C@@H](C)C(=O)N[C@H](C(=O)N1CCN(C(=O)c2cc3ccc(OC)cc3n2C)CC1)C1CCCCC1` [Example 1, (S)—N—((S)-1-Cyclohexyl-2-(4-(6-methoxy-1-methyl-1H-indole-2-carbonyl)piperazin-1-yl)-2-oxoethyl)-2-(methylamino)propanamide Hydrochloride], for which the inhibition at 3 µM was more than 75%.
For `CN[C@@H](C)C(=O)N[C@H](C(=O)N1CCN(C(=O)c2cc3cc(F)ccc3n2CC(=O)NCCOCCOCCOCCNC(=O)C[C@@H]2N=C(c3ccc(Cl)cc3)c3c(sc(C)c3C)-n3c(C)nnc32)CC1)C1CCCCC1` [Example 77, (S)-N-((S)-2-(4-(1-(17-((S)-4-(4-chlorophenyl)-2,3,9-trimethyl-6H-thieno[3,2-f][1,2,4]triazolo[4,3-a][1,4]diazepin-6-yl)-2,16-dioxo-6,9,12-trioxa-3,15-diazaheptadecyl)-5-fluoro-1H-indole-2-carbonyl)piperazin-1-yl)-1-cyclohexyl-2-oxoethyl)-2-(methylamino)propanamide], the inhibition at 3 µM was more than 25%.
Same read-out and setting: the figure for `CN[C@@H](C)C(=O)N[C@H](C(=O)N1CCN(C(=O)c2ccc3c(C)n(C)nc3c2)CC1)C1CCCCC1` [Example 23, (S)-N-((S)-1-cyclohexyl-2-(4-(2,3-dimethyl-2H-indazole-6-carbonyl)piperazin-1-yl)-2-oxoethyl)-2-(methylamino)propanamide] is more than 25%.
Same read-out and setting: the figure for `CN[C@@H](C)C(=O)N[C@H](C(=O)N1CCN(C(=O)c2cc3ccc(OC)cc3n2C)[C@H](C)C1)C1CCCCC1` [Example 34, (S)—N—((S)-1-Cyclohexyl-2-((R)-4-(6-methoxy-1-methyl-1H-indole-2-carbonyl)-3-methylpiperazin-1-yl)-2-oxoethyl)-2-(methylamino)propanamide Hydrochloride] is more than 75%; for `CN[C@@H](C)C(=O)N[C@H](C(=O)N1CCN(C(=O)c2c(C(=O)NCCOCCOCCN=[N+]=[N-])c3ccc(OC)cc3n2C)CC1)C1CCCCC1` [Example 61, N-(2-(2-(2-Azidoethoxy)ethoxy)ethyl)-2-(4-((S)-2-cyclohexyl-2-((S)-2-(methylamino)propanamido)acetyl)piperazine-1-carbonyl)-6-methoxy-1-methyl-1H-indole-3-carboxamide] it is more than 75%; for `CN[C@@H](C)C(=O)N[C@H](C(=O)N1CCN(C(=O)c2c(C(=O)N(C)CC(=O)OC)c3ccc(OC)cc3n2C)CC1)C1CCCCC1` [Example 28, Methyl N-(2-(4-((S)-2-cyclohexyl-2-((S)-2-(methylamino)propanamido)acetyl)piperazine-1-carbonyl)-6-methoxy-1-methyl-1H-indole-3-carbonyl)-N-methylglycinate Hydrochloride] it is 50 to 75%.
Turning to `CN[C@@H](C)C(=O)N[C@H](C(=O)N1CCN(C(=O)c2cc3ccnn3cc2C)CC1)C1CCCCC1` [Example 3, (S)-N-((S)-1-cyclohexyl-2-(4-(6-methylpyrazolo[1,5-a]pyridine-5-carbonyl)piperazin-1-yl)-2-oxoethyl)-2-(methylamino)propanamide], the inhibition at 3 µM is 25 to 50%.
Still for that read-out and setting: the figure for `CN[C@@H](C)C(=O)N[C@H](C(=O)N1CCN(C(=O)c2c(C=O)c3cc(F)ccc3n2C)CC1)C1CCCCC1` [Example 35, (S)—N—((S)-1-Cyclohexyl-2-(4-(5-fluoro-3-formyl-1-methyl-1H-indole-2-carbonyl)piperazin-1-yl)-2-oxoethyl)-2-(methylamino)propanamide Hydrochloride] is more than 75%.
Regarding `CN[C@@H](C)C(=O)N[C@H](C(=O)N1CCN(C(=O)c2c(OCCOCCOCc3ccccc3)c3cc(F)c(F)cc3n2C)CC1)C1CCCCC1` [Example 49, (S)—N—((S)-2-(4-(3-(2-(2-(Benzyloxy)ethoxy)ethoxy)-5,6-difluoro-1-methyl-1H-indole-2-carbonyl)piperazin-1-yl)-1-cyclohexyl-2-oxoethyl)-2-(methylamino)propanamide], the IC50 lay in the range of 3 to 30 µM.
For `CN[C@@H](C)C(=O)N[C@H](C(=O)N1CCN(C(=O)c2ccc3c(c2)cc(C)n3CCOCCOCCO)CC1)C1CCCCC1` [Example 69, (S)—N—((S)-1-Cyclohexyl-2-(4-(1-(2-(2-(2-hydroxyethoxy)ethoxy)ethyl)-2-methyl-1H-indole-5-carbonyl)piperazine-1-yl)-2-oxoethyl)-2-(methylamino)propanamide], the IC50 was less than 0.3 µM.
For `CN[C@@H](C)C(=O)N[C@H](C(=O)N1CCN(C(=O)c2cc3ccc(OC)cc3n2C)[C@@H](C)C1)C1CCCCC1` [Example 33, (S)—N—((S)-1-Cyclohexyl-2-((S)-4-(6-methoxy-1-methyl-1H-indole-2-carbonyl)-3-methylpiperazin-1-yl)-2-oxoethyl)-2-(methylamino)propanamide Hydrochloride], the inhibition at 3 µM was more than 75%.
